# Measured values: US8506950B2, “Degradable microcapsules” (ETH Zurich, priority 2008, dated 2013)
# Test system: PhCMV*-1 and PETR driven SecCell expression
# Assay: Transient expression of SecCell under antibiotic-responsive promoters in mammalian cells
# Format: cell-based, human, hamster
# Details: HEK293-T, HeLa, HT-1080, CHO-K1, BHK-21, transient transfection
# Excerpt: (B) Transient expression of cellulase in HEK293-T, HeLa, HT-1080, BHK-21 and CHO-K1 cells. Cellulase was either driven by a constitutive (PhCMV) or antibiotic-responsive promoters (PhCMV*-1 and PETR).
# The Bacillus subtilis endo (1-4)-beta-glucanase was PCR-amplified from genomic DNA and fused to a strong mammalian secretion signal sequence derived from the murine Igk-chain V-12-C region. The secreted cellulase (SecCell) was cloned downstream of a constitutive promoter (PhCMV) as well as two different inducible promoters which enabled doxycycline-(PhCMV*-1) and erythromycin-(PETR) adjustable transgene expression (FIG. 1A).
# Cellulase was quantified using EnzCheck® fluorescent substrate (Molecular Probes, Eugene, Oreg., USA) according to the manufacturer's protocol: 20 μl of cell culture supernatant was centrifuged at 16,000×g for one minute to remove cell debris and 15 μl of appropriate dilutions in PBS (Invitrogen, cat. no. 21600-069) were transferred to a 384-well plate containing 15 μl sodium acetate buffer (200 mM sodium acetate, pH 5.5) per well supplemented with 3 μl substrate solution. Plates were incubated at 37° C. for 30 minutes and fluorescence intensity was measured subsequently at 340 nm (excitation wavelength) and 450 nm (emission wavelength) in a Genios Pro multiwell plate reader (Tecan A G, Maennedorf, Switzerland). […]
structure (smiles),measurement,value
"CC[C@H]1OC(=O)[C@H](C)[C@@H](O[C@H]2C[C@@](C)(OC)[C@@H](O)[C@H](C)O2)[C@H](C)[C@@H](O[C@@H]2O[C@H](C)C[C@H](N(C)C)[C@H]2O)[C@](C)(O)C[C@@H](C)C(=O)[C@H](C)[C@@H](O)[C@]1(C)O [EM, erythromycin]",SecCell production (cellulase activity in the culture supernatants),repressed
